Test results taken from patent US11052072B2, “Pyrazolo[4,3-C] quinoline derivatives for inhibition of β-glucuronidase” (Kaohsiung Medical University, priority 2015, dated 2021).
Counter-ions that a name gives are not always drawn.

What was measured:
[1] = target: T1, human liver-glucuronidase (hβG) (Homo sapiens, UniProt P08236); test: Inhibition of purified recombinant hβG activity (pNPG substrate, OD420); type: biochemical; details: 10 μM, purified recombinant hβG, pNPG, means ± S.D. of at least three separate experiments; for remaining activity at 10 µM: read-out: Percent activity of human liver-glucuronidase at 10 μM (%)
T1 sequence (P08236 23-651): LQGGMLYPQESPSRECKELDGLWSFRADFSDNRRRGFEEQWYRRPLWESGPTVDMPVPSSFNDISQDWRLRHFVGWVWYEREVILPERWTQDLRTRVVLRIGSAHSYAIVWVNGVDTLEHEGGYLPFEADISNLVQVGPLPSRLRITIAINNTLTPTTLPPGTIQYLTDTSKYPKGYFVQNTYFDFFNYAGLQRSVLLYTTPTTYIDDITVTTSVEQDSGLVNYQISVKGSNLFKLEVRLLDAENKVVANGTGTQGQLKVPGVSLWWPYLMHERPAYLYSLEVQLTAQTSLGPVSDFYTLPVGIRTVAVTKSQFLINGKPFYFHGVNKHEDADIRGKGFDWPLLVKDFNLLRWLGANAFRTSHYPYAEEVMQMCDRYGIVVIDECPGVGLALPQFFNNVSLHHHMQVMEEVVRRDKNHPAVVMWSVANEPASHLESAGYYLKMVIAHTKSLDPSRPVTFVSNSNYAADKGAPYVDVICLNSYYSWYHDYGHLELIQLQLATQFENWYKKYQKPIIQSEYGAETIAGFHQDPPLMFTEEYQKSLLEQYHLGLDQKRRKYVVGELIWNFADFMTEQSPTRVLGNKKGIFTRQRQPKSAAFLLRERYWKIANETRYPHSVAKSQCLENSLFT
Description: (§1) The pyrazolo[4,3-c]quinoline derivatives were examined for their inhibition against eβG or hβG activity. Purified recombinant eβG or hβG proteins were incubated with serial dilution of the inhibitors, respectively. The βG activity was determined by color development of a βG substrate, pNPG. The hydrolysis product of pNPG, PNP was measured by OD420.

[2] = target: E. coli β-glucuronidase (eβG) (Escherichia coli, UniProt P05804); test: Inhibition of purified recombinant eβG activity (pNPG substrate, OD420); type: biochemical; details: for remaining activity at 10 µM: read-out: Percent activity of E. coli-glucuronidase at 10 μM (%)
Description: as §1

Chain of E. coli β-glucuronidase (eβG) (P05804 whole entry): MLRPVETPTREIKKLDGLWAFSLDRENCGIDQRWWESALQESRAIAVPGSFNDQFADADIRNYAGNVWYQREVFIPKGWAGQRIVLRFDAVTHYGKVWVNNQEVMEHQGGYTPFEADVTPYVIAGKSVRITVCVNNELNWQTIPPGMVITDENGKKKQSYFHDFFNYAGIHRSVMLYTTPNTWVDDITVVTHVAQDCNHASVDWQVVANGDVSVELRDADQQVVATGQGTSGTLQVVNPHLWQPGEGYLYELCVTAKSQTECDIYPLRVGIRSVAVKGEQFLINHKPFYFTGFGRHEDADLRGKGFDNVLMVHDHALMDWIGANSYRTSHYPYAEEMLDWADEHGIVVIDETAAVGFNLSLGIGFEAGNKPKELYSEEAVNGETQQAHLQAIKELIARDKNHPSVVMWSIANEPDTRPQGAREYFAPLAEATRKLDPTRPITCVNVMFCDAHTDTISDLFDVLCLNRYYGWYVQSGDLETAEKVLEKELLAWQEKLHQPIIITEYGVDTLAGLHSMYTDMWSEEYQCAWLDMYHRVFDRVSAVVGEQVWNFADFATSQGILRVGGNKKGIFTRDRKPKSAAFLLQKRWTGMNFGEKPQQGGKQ

SMILES | melting point | remaining activity at 10 µM [1] [%] | remaining activity at 10 µM [2] [%] | Percent activity of human liver-glucuronidase at 10 μM (%) [1] [%] | Percent activity of E. coli-glucuronidase at 10 μM (%) ([2]; 10 μM, purified recombinant eβG, pNPG, means ± S.D. of at least three separate experiments)
Cc1ccc(Nc2nc3cc(F)ccc3c3[nH]nc(N)c23)cc1 (as salt: salt) [Compound 9, 7-Fluoro-N^4-(p-tolyl)-1H-pyrazolo[4,3-c]quinoline-3,4-diamine] | 246 to 247 °C |  |  |  | 
Nc1n[nH]c2c1c(Nc1ccc(Cl)cc1)nc1ccc(Cl)cc12 (as salt: salt) [Compound 10, 8-Chloro-N^4-(4-chlorophenyl)-1H-pyrazolo[4,3-c]quinoline-3,4-diamine] | 270 to 272 °C |  |  |  | 
Cc1ccc(Nc2nc3ccc(Cl)cc3c3[nH]nc(N)c23)cc1 (as salt: salt) [Compound 11, 8-Chloro-N^4-(p-tolyl)-1H-pyrazolo[4,3-c]quinoline-3,4-diamine] | 261 °C |  |  |  | 
CSc1ccc(Nc2nc3ccccc3c3[nH]nc(N)c23)cc1 (as salt: salt) [Compound 20, 3-Amino-4-(4-methylthiophenylamino)-1H-pyrazolo[4,3-c]quinoline] | 269 to 271 °C |  |  |  | 
Nc1n[nH]c2c1c(Nc1ccc([N+](=O)[O-])cc1)nc1ccccc12 (as salt: salt) [Compound 21, 3-Amino-4-(4-nitrophenylamino)-1H-pyrazolo[4,3-c]quinoline] | 303 to 305 °C |  |  |  | 
Nc1n[nH]c2c1c(Nc1ccc(C(=O)O)cc1)nc1ccccc12 (as salt: salt) [Compound 22, 4-(3-Amino-1H-pyrazolo[4,3-c]quinolin-4-ylamino)benzoic acid] | 362 to 364 °C |  |  |  | 
CC(=O)c1ccc(Nc2nc3ccccc3c3[nH]nc(N)c23)cc1 (as salt: salt) [Compound 23, 3-Amino-4-(4-acetylphenylamino)-1H-pyrazolo[4,3-c]quinoline] | 249 to 251 °C |  |  |  | 
Nc1n[nH]c2c1c(Nc1cccc(O)c1)nc1ccccc12 (as salt: salt) [Compound 24, 3-Amino-4-(3-hydroxyphenylamino)-1H-pyrazolo[4,3-c]quinoline] | 319 to 321 °C |  |  |  | 
Cc1cccc(Nc2nc3ccccc3c3[nH]nc(N)c23)c1 (as salt: salt) [Compound 25, N^4-(m-Tolyl)-1H-pyrazolo[4,3-c]quinoline-3,4-diamine] | 281 to 282 °C |  |  |  | 
Cc1cccc2c1nc(Nc1ccc(Cl)cc1)c1c(N)n[nH]c12 [Compound 6, N^4-(4-Chlorophenyl)-6-methyl-1H-pyrazolo[4,3-c]quinoline-3,4-diamine] | 249 to 250 °C | 78.5 ± 0.71 | 6 ± 1 |  | 
Cc1ccc(Nc2nc3c(C)cccc3c3[nH]nc(N)c23)cc1 [Compound 7, 6-Methyl-N^4-(p-tolyl)-1H-pyrazolo[4,3-c]quinoline-3,4-diamine] | 270 to 271 °C | 74 ± 1 | 3 ± 1 |  | 
Nc1n[nH]c2c1c(Nc1ccc(Cl)cc1)nc1cc(F)ccc12 [Compound 8, N^4-(4-Chlorophenyl)-7-fluoro-1H-pyrazolo[4,3-c]quinoline-3,4-diamine] | 254 °C (dec.) | 83.5 ± 0.71 | 4 ± 1 |  | 
Cc1ccc(Nc2nc3cc(F)ccc3c3[nH]nc(N)c23)cc1 [Compound 9, 7-Fluoro-N^4-(p-tolyl)-1H-pyrazolo[4,3-c]quinoline-3,4-diamine] |  | 81.5 ± 0.71 | 4 ± 1 |  | 
Nc1n[nH]c2c1c(Nc1ccc(Cl)cc1)nc1ccc(Cl)cc12 [Compound 10, 8-Chloro-N^4-(4-chlorophenyl)-1H-pyrazolo[4,3-c]quinoline-3,4-diamine] |  | 77 ± 1.41 | 3 ± 1 |  | 
Cc1ccc(Nc2nc3ccc(Cl)cc3c3[nH]nc(N)c23)cc1 [Compound 11, 8-Chloro-N^4-(p-tolyl)-1H-pyrazolo[4,3-c]quinoline-3,4-diamine] |  | 80.5 ± 2.12 | 3 ± 1 |  | 
Nc1n[nH]c2c1c(Nc1ccc(Cl)cc1)nc1ccc(Br)cc12 [Compound 12, 8-Bromo-N^4-(4-chlorophenyl)-1H-pyrazolo[4,3-c]quinoline-3,4-diamine] | 264 °C (dec.) | 79.3 ± 2.63 | 5 ± 1 |  | 
Cc1ccc(Nc2nc3ccc(Br)cc3c3[nH]nc(N)c23)cc1 [Compound 13, S-Bromo-N^4-(p-tolyl)-1H-pyrazolo[4,3-c]quinoline-3,4-diamine] |  |  |  | 80.21 ± 2.14 | 4 ± 1

SMILES | melting point | remaining activity at 10 µM [1] [%] | remaining activity at 10 µM [2] [%] | Percent activity of human liver-glucuronidase at 10 μM (%) [1] [%] | Percent activity of E. coli-glucuronidase at 10 μM (%) ([2]; 10 μM, purified recombinant eβG, pNPG, means ± S.D. of at least three separate experiments)
Nc1n[nH]c2c1c(Nc1ccccc1)nc1ccccc12 [Compound 14, 3-Amino-4-anilino-1H-pyrazolo[4,3-c]quinoline] | 256 to 258 °C | 105.5 ± 0.71 | 4 ± 1 |  | 
Nc1n[nH]c2c1c(Nc1ccc(O)cc1)nc1ccccc12 [Compound 15, 3-Amino-4-(4-hydroxyphenylamino)-1H-pyrazolo[4,3-c]quinoline] | 347 to 349 °C | 95 ± 4.24 | 7 ± 1 |  | 
Nc1ccc(Nc2nc3ccccc3c3[nH]nc(N)c23)cc1 [Compound 16, 3-Amino-4-(4-aminophenylamino)-1H-pyrazolo[4,3-c]quinoline] | 355 to 356 °C | 82.5 ± 3.54 | 8 ± 1 |  | 
Nc1n[nH]c2c1c(Nc1ccc(C(F)(F)F)cc1)nc1ccccc12 [Compound 18, 3-Amino-4-(4-trifluoromethylphenylamino)-1H-pyrazolo[4,3-c]quinoline] | 251 to 252 °C | 106 ± 2.83 | 4.5 ± 0.71 |  | 
COc1ccc(Nc2nc3ccccc3c3[nH]nc(N)c23)cc1 [Compound 19, 3-Amino-4-(4-methoxyphenylamino)-1H-pyrazolo[4,3-c]quinoline] | 228 to 230 °C | 102 ± 2.12 | 3 ± 1 |  | 
CSc1ccc(Nc2nc3ccccc3c3[nH]nc(N)c23)cc1 [Compound 20, 3-Amino-4-(4-methylthiophenylamino)-1H-pyrazolo[4,3-c]quinoline] |  | 108 ± 3.54 | 5 ± 1.41 |  | 
Nc1n[nH]c2c1c(Nc1ccc([N+](=O)[O-])cc1)nc1ccccc12 [Compound 21, 3-Amino-4-(4-nitrophenylamino)-1H-pyrazolo[4,3-c]quinoline] |  | 90.86 ± 0.32 | 46.5 ± 4.95 |  | 
Nc1n[nH]c2c1c(Nc1ccc(C(=O)O)cc1)nc1ccccc12 [Compound 22, 4-(3-Amino-1H-pyrazolo[4,3-c]quinolin-4-ylamino)benzoic acid] |  | 95 ± 4.24 | 15.5 ± 1.71 |  | 
CC(=O)c1ccc(Nc2nc3ccccc3c3[nH]nc(N)c23)cc1 [Compound 23, 3-Amino-4-(4-acetylphenylamino)-1H-pyrazolo[4,3-c]quinoline] |  | 104 ± 1.41 | 3 ± 1 |  | 
Nc1n[nH]c2c1c(Nc1cccc(O)c1)nc1ccccc12 [Compound 24, 3-Amino-4-(3-hydroxyphenylamino)-1H-pyrazolo[4,3-c]quinoline] |  | 105 ± 1.41 | 13.5 ± 0.71 |  | 
Cc1cccc(Nc2nc3ccccc3c3[nH]nc(N)c23)c1 [Compound 25, N^4-(m-Tolyl)-1H-pyrazolo[4,3-c]quinoline-3,4-diamine] |  | 102 ± 2.08 | 69.9 ± 0.02 |  | 
Nc1n[nH]c2c1c(Nc1cccc(Cl)c1)nc1ccccc12 [Compound 26, N^4-(3-Chlorophenyl)-1H-pyrazolo[4,3-c]quinoline-3,4-diamine] | 227 to 229 °C | 97.78 ± 0.01 | 14.9 ± 2.31 |  | 
COc1cccc(Nc2nc3ccccc3c3[nH]nc(N)c23)c1 [Compound 27, 3-Amino-4-(3-methoxyphenylamino)-1H-pyrazolo[4,3-c]quinoline] | 184 to 186 °C | 107 ± 1.41 | 8 ± 1.41 |  | 
CC(=O)c1cccc(Nc2nc3ccccc3c3[nH]nc(N)c23)c1 [Compound 28, 3-Amino-4-(3-acetylphenylamino)-1H-pyrazolo[4,3-c]quinoline] | > 380 °C | 93 ± 2.83 | 91 ± 1 |  | 
O=C(Nc1ccccc1)Nc1n[nH]c2c1c(=O)[nH]c1ccccc12 [Compound 34, 1-(4-oxo-4,5-dihydro-1H-pyrazolo[4,3-c]quinolin-3-yl)-3-phenylurea] |  | 82 ± 1.41 | 86 ± 1 |  | 
CCOc1ccc(NC(=S)N(CCO)Cc2cc3cc(C)cc(C)c3[nH]c2=O)cc1 [βG-Inh, 1-((6,8-Dimethyl-2-oxo-1,2-dihydroquinolin-3-yl)methyl)-3-(4-ethoxyphenyl)-1-(2-hydroxyethyl) thiourea, reference compound] |  |  | 3 ± 1 |  | 
